According to PubChem BioAssay (NCI):
“And” between values parts separate entries of the source, which are not always exact repeats. Equal entries are not always repeated.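 48-hour exposure; five concentrations; linearly interpolated endpoints. Abbreviation: GI50, concentration required for 50% inhibition of growth. The concentration for full growth arrest is given as TGI.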

Key:
Assay in all cases: inhibition of tumour cell growth, NCI panel, 48 h
A549 NSCLC = tested on: A549 NSCLC
HCT-116 colon = tested on: HCT-116 colon
HT29 colon = tested on: HT29 colon
K-562 leukemia = tested on: K-562 leukemia
MDA-MB-435 = tested on: MDA-MB-435
NCI/ADR-RES ovarian = tested on: NCI/ADR-RES ovarian
OVCAR-4 ovarian = tested on: OVCAR-4 ovarian
RPMI-8226 leukemia = tested on: RPMI-8226 leukemia
SF-539 CNS = tested on: SF-539 CNS
SK-OV-3 ovarian = tested on: SK-OV-3 ovarian
UACC-62 melanoma = tested on: UACC-62 melanoma

SMILES	TGI (A549 NSCLC)	TGI (HCT-116 colon)	TGI (HT29 colon)	TGI (K-562 leukemia)	TGI (MDA-MB-435)	TGI (NCI/ADR-RES ovarian)	TGI (OVCAR-4 ovarian)	TGI (RPMI-8226 leukemia)	TGI (SF-539 CNS)	TGI (SK-OV-3 ovarian)	TGI (UACC-62 melanoma)	GI50 (HCT-116 colon)	GI50 (K-562 leukemia)	GI50 (MDA-MB-435)	GI50 (NCI/ADR-RES ovarian)	GI50 (UACC-62 melanoma)
CCOC(=O)c1cc(I)c(-c2cc(C)no2)n1C	> 100 µM	> 100 µM	> 100 µM	> 100 µM	> 100 µM	> 100 µM	75 µM	> 100 µM	> 100 µM	> 100 µM	> 100 µM					
O=c1c2c3c(sc2nc2n1N=C(c1ccc(Cl)cc1)CS2)CCCC3	> 100 µM	> 100 µM	> 100 µM	> 100 µM	> 100 µM	> 100 µM	> 100 µM	> 100 µM	> 100 µM	> 100 µM	> 100 µM					
COC(OC)C1OCC(n2cc(F)c(=O)[nH]c2=O)C1O (stereo unspecified)	> 100 µM	> 100 µM	> 100 µM	> 100 µM	> 100 µM	> 100 µM	> 100 µM	> 100 µM	> 100 µM	> 100 µM	> 100 µM					
CC(=O)OCC1OC(OCCCCCCO)C(OC(C)=O)C(OC(C)=O)C1OC(C)=O (stereo unspecified)	> 100 µM	> 100 µM	> 100 µM	> 100 µM	> 100 µM	> 100 µM	> 100 µM	> 100 µM	> 100 µM	> 100 µM	> 100 µM					
CC(=O)OCc1cncn1S(=O)(=O)c1ccc(C)cc1	> 100 µM	> 100 µM	> 100 µM	> 100 µM	> 78.9 µM	> 100 µM	> 100 µM	> 100 µM	> 100 µM	> 100 µM	> 100 µM					
CCN(CC)C(=S)Nc1ccc(-c2cc3ccc(O)cc3oc2=O)cc1	> 100 µM	> 100 µM	30.4 µM	> 100 µM	> 100 µM	81.9 µM		95.8 µM	> 100 µM	> 100 µM	> 100 µM					
O=[N+]([O-])c1ccc(N/N=C/CC(O)(C(F)(F)F)C(F)(F)F)c([N+](=O)[O-])c1	> 10 µM	> 10 µM	> 10 µM	> 10 µM	> 10 µM	> 10 µM	> 10 µM	> 10 µM	> 10 µM	> 10 µM	> 10 µM					
COC(=O)C1=C(OC(=O)/C=C/c2ccccc2)C(C(=O)OC)[C@@]2(O)[C@@H](C(=O)OC)[C@H](C)C[C@@H]1[C@@H]2C(=O)OC (stereo partly specified)	58.4 µM	88.4 µM	> 100 µM	> 100 µM	> 100 µM	41.5 µM	> 100 µM	> 100 µM	52.6 µM	70.2 µM	33.1 µM					
COC(=O)CCc1ccc2c(c1)C(=O)CC2	> 100 µM	> 100 µM	> 100 µM	> 100 µM	> 100 µM	> 100 µM	> 100 µM	> 100 µM	> 100 µM	> 100 µM						
CC1=NN(C(=O)CC(=O)Nc2ccccc2Cl)C(=O)C1N=Nc1ccc(S(=O)(=O)c2ccc(N=NC3C(=O)N(C(=O)CC(=O)Nc4ccccc4Cl)N=C3C)cc2)cc1 (stereo unspecified)	> 100 µM	> 100 µM	> 100 µM	> 100 µM	> 100 µM	> 100 µM	> 100 µM	> 100 µM	> 100 µM	> 100 µM	> 100 µM					
CCOC(=O)c1c(Br)c(-c2ccc(OC)cc2)c(Br)n1C	82.3 µM	62.6 µM	56.3 µM	38.3 µM	7.71 µM and 29.3 µM	55.3 µM	> 100 µM	> 100 µM	70.9 µM	> 100 µM	47.6 µM	16 µM	4.04 µM	4.47 µM	23.7 µM	13 µM
C(/Cc1ccc2c(c1)OCO2)=N\NC1=NCCN1	> 100 µM	> 100 µM	> 100 µM	> 100 µM	> 100 µM	> 100 µM	> 100 µM	> 100 µM	> 100 µM	> 100 µM	> 100 µM					
O=C(NC1CCCCC1)c1cc2ccccc2cc1O		47.6 µM	37 µM	55.9 µM	> 100 µM	54.7 µM	> 100 µM	46.6 µM	57.2 µM	> 100 µM	> 100 µM					
CCOC(=O)c1nc2ccccc2nc1Oc1ccc(C(=O)OC)cc1	> 100 µM	> 100 µM	> 100 µM	> 100 µM	> 100 µM	> 100 µM	> 100 µM	> 100 µM	> 100 µM	> 100 µM	> 100 µM					
C(=N\Nc1ccc(-c2nc3ccccc3[nH]2)cc1)/c1c(-c2ccc(Cc3ccccc3)cc2)[nH]c2ccccc12	> 100 µM	> 68.4 µM	> 57.9 µM	> 100 µM	> 27.4 µM	52.8 µM	> 93.6 µM	> 32.5 µM	44.6 µM	> 100 µM	> 54.3 µM					
CCOC(=O)C[n+]1cccc(C2(c3cc4ccccc4[nH]3)OCCO2)c1	> 100 µM	> 100 µM	> 100 µM	> 100 µM	> 100 µM	> 100 µM	> 100 µM	> 100 µM	> 100 µM	> 100 µM	> 100 µM					
CCOC(=O)C(CC(C)C)NC(=O)CSc1nnc(COc2ccc(Cl)cc2)n1-c1ccccc1 (stereo unspecified)	45.9 µM	28 µM	32.7 µM	> 100 µM	35.6 µM	44.3 µM	36.2 µM	54.5 µM	42.3 µM	59.8 µM	30.7 µM					
Oc1ccc(Cl)cc1-c1cc(-c2ccccc2)nc(NCN2CCCCC2)n1	> 100 µM	> 100 µM	> 100 µM	> 100 µM	> 100 µM	> 100 µM	> 100 µM	> 100 µM	> 100 µM	> 100 µM	> 100 µM					
CSc1c(C#N)c(N)nc2c(N=Nc3ccc(Br)cc3)c(N)nn12	25.1 µM	12.5 µM	29 µM	21.4 µM	25 µM	47.5 µM	15.1 µM	54.7 µM	23.6 µM	38.1 µM	19.4 µM					
